US11254666B2, “Compound as GLS1 inhibitor” (MEDSHINE DISCOVERY INC., priority 2017, dated 2022)

What was measured:
GLS1 = target: T1, GLS1 (Homo sapiens, UniProt O94925); assay: Activity test of compounds in GLS1 coupling reaction system; format: biochemical; details: 2 nM GLS1, 4.5 mM L-glutamine, 1 hour pre-incubation at 23° C.
T1 sequence (O94925 55-669): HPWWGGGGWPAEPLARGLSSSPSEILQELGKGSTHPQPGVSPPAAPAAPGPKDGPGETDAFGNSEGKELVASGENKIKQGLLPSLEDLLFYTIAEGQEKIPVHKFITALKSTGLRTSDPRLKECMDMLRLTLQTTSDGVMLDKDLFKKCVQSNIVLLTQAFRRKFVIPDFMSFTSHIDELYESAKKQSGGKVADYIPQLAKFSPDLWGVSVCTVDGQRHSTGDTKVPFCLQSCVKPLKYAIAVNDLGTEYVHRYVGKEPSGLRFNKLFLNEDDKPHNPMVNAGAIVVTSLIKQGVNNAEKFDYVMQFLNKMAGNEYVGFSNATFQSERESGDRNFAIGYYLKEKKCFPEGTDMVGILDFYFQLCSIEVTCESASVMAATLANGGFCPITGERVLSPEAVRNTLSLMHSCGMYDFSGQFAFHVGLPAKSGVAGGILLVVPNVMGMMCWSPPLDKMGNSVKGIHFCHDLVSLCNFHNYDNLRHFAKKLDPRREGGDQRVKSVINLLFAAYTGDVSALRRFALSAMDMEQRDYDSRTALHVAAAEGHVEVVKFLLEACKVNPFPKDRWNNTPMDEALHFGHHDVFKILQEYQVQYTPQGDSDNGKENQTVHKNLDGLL
Experimental: Experimental Example 1: Activity Test of Compounds in GLS1 Coupling Reaction System
Preparation of Reaction Reagents: Relevant reagents should be prepared on the day of the experiment: Preparation of 1× assay buffer The final concentration of each component in the final experimental buffer was: 50 mM Tris-HCl pH 8.0, 0.25 mM EDTA, 150 mM K2HPO4, 0.1 mg/mL BSA, 1 mM DTT, 0.01% Triton X-100 Preparation of 2× experimental component solutions: The reagents were taken out and placed on ice to melt naturally for later use; 1× assay buffer was used to prepare “solution A” (solution A contains: L-glutamine, NAD+(nicotinamide adenine dinucleotide) and GLDH (glutamic acid dehydrogenase)). The final concentrations of each component in the final experimental reaction systemwere 4.5 mM L-glutamine, 2 mM NAD+ 4 U/mL GLDH. 1× assay buffer was used to prepare “solution B” - - - 2× enzyme solution (solution B contains GLS1 enzyme). The final concentration of GLS1 in the final experimental reaction system was 2 nM. Experimental Steps: The experiment plates are prepared by Labcyte ECHO before the experiment, which contain the compounds gradient concentrations and the corresponding DMSO solution: The experimental plates were taken out, and 20 μL of solution B (enzyme GLS1 solution) was added to columns 2 to 23 of the experimental plate, then 20 μL assay buffer was added to columns 1 and 24 as Min control in the experimental system. Then the experimental plates were centrifuged at 1000 rpm for 30 seconds; and sealed the membrane, and the plates were incubated at 23° C. for 1 hour. After the incubation of 1 hour, 20 μL of solution A was added to columns 1 to 24 of the experimental plates (ie, Samples were added to the whole plate). The experimental plates were centrifuged at 1000 rpm for 30 seconds. The experimental plates were placed on the SpectraMax 340PC, and the plates were continuously read for 20 minutes in dynamic mode (the reading interval was set to 1 minute).

[1] = Evaluation of compounds pharmacokinetics in mice; format: in vivo; details: mouse, plasma, female C57BL/6 mice
Experimental: Experimental Example 2: Evaluation of Compounds Pharmacokinetics
Experimental purpose: To test the pharmacokinetics of compounds in mice
C57BL/6 mice (female, 7-9 weeks old, Shanghai SLAC)
Experimental procedure: C57BL/6 mice (C57BL/6) were administered a clear solution obtained by dissolving test compounds via tail vein injection and intragastric administration (overnight fast, 7-9 weeks old). After administration of the test compounds, the intravenous group was at 0.0833, 0.25, 0.5, 1, 2, 4, 6, 8 and 24 h, and the gavage group was at 0.0833, 0.25, 0.5, 1, 2, 4, 6, 8 and 24, blood was collected from the mandibular vein and centrifuged to obtain plasma. LC-MS/MS method was used to determine blood drug concentration, and WinNonlin™ Version 6.3 pharmacokinetic software was used to calculate the relevant pharmacokinetic parameters by non-compartment model linear logarithmic trapezoid method.

SMILES	IC50 (GLS1) [nM]	further results
O=C(Cc1cccnc1)Nc1nnc(NC2CCN(c3cccnn3)CC2)s1 [Example 5]	200 to 1000	–
CO[C@H](C(=O)Nc1nnc(NC2CCN(c3cccnn3)CC2)s1)c1cc(OC(F)(F)F)ccc1F [Example 17]	< 200	bioavailability ([1]; po, intragastric vs tail vein): 91.3%; half-life ([1]; po, tail vein injection and intragastric administration, route and dose not given, read-out: T1/2 (half-life) (converted)): 2.52 h; AUC(0-inf) ([1]; route and dose not given): 26.1 µM·h; Cmax ([1]; route and dose not given, read-out: Cmax (maximum concentration)): 11.6 µM
CO[C@H](C(=O)Nc1nnc(NC2CCN(c3cccnn3)CC2)s1)c1cccnc1 [Example 16]	200 to 1000	–
O=C(Cc1cc(Cl)ccc1Cl)Nc1nnc(NC2CCN(c3cccnn3)CC2)s1 [Example 7]	200 to 1000	–
O=C(Cc1cc(Cl)ccc1F)Nc1nnc(NC2CCN(c3cccnn3)CC2)s1 [Example 8]	200 to 1000	–
O=C(Cc1cc(OC(F)(F)F)ccc1F)Nc1nnc(NC2CCN(c3cccnn3)CC2)s1 [Example 9]	200 to 1000	–
